Experimental data taken from ChEMBL document CHEMBL3638701, “Inhibitors of protein kinases” (2015).

What was measured:
[1] = target: Cyclin-dependent kinase 1 (Homo sapiens, UniProt P06493); experiment: (§1) In Vitro Kinase Inhibition Assay: In vitro kinase assay analysis may be performed using standard techniques described in the art. These techniques are also used by commercial services providers in order to offer in vitro kinase activity assay services, e.g. the assays offered by Millipore Inc. (worldwide website www(dot)millipore.com), ProQinase GmbH (worldwide website www(dot)proqinase.de) and others. All kinase assays were performed in 96-well FlashPlates from Perkin Elmer/NEN (Boston, Mass., USA) in a 50ul reaction volume. The reaction mixture was pipetted in four steps in the following order: 20ul of assay buffer (standard buffer),5ul of ATP solution (in H2O, 5 ul of test compound (in 10% DMSO), 10ul of substrate/10ul of enzyme solution (premixed)The assay for all enzymes contained 60 mM HEPES-NaOH (pH 7.5), 3 mM MgCl2, 3 mM MnCl2, 3uM Na-Orthovanadate, 1.2 mM DTT, 50 ug/ml PEG2000, 1 uM [33P]-ATP (approx. 5x1005 cpm per well).
Sequence of Cyclin-dependent kinase 1 (P06493 whole entry): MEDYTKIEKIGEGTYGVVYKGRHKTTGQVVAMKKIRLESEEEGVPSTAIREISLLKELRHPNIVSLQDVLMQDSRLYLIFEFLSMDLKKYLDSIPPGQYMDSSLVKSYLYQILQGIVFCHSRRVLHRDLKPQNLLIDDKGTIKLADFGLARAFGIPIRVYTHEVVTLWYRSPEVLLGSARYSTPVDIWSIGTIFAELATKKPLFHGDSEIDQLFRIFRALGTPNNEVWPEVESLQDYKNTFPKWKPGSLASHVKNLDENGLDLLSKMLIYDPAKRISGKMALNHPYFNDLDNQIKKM

[2] = target: Cyclin-dependent kinase 2 (Homo sapiens, UniProt P24941); experiment: as §1
[3] = target: Cyclin-dependent kinase 3 (Homo sapiens, UniProt Q00526); experiment: as §1
Sequence of Cyclin-dependent kinase 3 (Q00526 whole entry): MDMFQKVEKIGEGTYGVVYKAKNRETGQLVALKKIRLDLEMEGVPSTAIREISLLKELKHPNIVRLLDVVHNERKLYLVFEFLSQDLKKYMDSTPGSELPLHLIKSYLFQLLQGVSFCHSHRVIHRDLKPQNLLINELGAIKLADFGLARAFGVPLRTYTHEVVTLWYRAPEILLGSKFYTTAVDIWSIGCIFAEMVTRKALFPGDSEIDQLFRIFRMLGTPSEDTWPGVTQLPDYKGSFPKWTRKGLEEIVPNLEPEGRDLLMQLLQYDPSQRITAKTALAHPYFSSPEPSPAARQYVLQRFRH

[4] = target: Cyclin-dependent kinase 5 (Homo sapiens, UniProt Q00535); experiment: as §1
Sequence of Cyclin-dependent kinase 5 (Q00535 whole entry): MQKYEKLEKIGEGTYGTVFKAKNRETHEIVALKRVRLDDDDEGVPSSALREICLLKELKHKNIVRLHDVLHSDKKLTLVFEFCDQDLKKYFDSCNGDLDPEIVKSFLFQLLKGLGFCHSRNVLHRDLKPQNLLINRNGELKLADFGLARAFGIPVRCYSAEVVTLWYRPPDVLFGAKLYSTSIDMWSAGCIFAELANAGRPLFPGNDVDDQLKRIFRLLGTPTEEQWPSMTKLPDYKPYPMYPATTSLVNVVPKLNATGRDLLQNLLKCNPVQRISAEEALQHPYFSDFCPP

[5] = target: Cyclin-dependent kinase 6 (Homo sapiens, UniProt Q00534); experiment: as §1
Sequence of Cyclin-dependent kinase 6 (Q00534 whole entry): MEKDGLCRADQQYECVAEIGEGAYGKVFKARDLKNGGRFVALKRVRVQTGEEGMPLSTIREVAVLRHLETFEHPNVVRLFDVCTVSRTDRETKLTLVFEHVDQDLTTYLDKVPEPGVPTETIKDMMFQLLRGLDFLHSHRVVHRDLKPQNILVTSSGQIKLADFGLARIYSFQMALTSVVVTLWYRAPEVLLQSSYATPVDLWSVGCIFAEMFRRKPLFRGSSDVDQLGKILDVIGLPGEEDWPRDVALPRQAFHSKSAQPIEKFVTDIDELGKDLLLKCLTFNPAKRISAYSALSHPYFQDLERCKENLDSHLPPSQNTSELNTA

[6] = target: Cyclin-dependent kinase 7 (Homo sapiens, UniProt P50613); experiment: as §1
Sequence of Cyclin-dependent kinase 7 (P50613 whole entry): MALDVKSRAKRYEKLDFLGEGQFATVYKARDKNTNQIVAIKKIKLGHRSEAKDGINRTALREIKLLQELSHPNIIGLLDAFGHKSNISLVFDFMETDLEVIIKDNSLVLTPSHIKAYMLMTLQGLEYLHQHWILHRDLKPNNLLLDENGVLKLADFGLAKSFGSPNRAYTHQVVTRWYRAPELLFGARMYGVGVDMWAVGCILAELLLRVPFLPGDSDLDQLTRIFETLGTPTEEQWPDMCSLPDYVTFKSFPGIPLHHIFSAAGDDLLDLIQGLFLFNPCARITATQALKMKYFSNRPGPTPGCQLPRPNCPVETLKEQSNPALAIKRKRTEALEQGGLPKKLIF

[7] = target: Cyclin-dependent kinase 9 (Homo sapiens, UniProt P50750); experiment: as §1
Sequence of Cyclin-dependent kinase 9 (P50750 whole entry): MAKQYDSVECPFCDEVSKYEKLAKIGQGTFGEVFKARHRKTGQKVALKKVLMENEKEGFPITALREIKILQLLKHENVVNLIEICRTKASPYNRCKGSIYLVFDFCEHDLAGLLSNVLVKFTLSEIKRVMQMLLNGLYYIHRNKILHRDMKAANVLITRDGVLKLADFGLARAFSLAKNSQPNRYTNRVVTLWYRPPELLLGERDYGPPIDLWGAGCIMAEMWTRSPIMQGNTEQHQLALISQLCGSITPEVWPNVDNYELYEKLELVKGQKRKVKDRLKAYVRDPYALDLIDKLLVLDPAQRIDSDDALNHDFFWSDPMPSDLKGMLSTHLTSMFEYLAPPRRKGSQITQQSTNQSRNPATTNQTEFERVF

[8] = target: Glycogen synthase kinase-3 alpha (Homo sapiens, UniProt P49840); experiment: as §1
Sequence of Glycogen synthase kinase-3 alpha (P49840 whole entry): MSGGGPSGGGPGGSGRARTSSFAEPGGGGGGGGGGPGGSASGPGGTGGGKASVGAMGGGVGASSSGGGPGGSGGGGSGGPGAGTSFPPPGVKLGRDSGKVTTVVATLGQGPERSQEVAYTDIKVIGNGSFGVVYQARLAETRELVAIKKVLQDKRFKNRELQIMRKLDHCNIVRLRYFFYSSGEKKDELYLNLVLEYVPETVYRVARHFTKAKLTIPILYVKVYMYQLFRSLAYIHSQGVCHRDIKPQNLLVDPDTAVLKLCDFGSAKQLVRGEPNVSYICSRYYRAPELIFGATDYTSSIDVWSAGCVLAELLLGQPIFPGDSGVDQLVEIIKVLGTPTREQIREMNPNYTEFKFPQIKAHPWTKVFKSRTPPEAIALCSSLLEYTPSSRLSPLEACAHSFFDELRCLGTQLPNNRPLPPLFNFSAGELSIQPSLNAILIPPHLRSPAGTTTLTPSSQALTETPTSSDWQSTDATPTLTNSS

[9] = target: Glycogen synthase kinase-3 beta (Homo sapiens, UniProt P49841); experiment: as §1
Sequence of Glycogen synthase kinase-3 beta (P49841 whole entry): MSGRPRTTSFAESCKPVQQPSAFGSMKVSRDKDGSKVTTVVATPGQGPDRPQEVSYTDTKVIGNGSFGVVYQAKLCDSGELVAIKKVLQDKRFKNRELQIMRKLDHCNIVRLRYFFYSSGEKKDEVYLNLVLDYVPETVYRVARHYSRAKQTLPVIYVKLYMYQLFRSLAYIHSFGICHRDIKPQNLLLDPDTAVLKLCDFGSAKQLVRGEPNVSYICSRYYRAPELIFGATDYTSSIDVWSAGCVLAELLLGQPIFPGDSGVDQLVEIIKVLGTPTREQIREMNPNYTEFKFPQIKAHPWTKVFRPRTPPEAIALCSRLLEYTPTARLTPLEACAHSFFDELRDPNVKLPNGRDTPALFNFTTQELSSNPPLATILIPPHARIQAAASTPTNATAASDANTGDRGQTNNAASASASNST

[10] = target: Interleukin-1 receptor-associated kinase 1 (Homo sapiens, UniProt P51617); experiment: as §1
Sequence of Interleukin-1 receptor-associated kinase 1 (P51617 whole entry): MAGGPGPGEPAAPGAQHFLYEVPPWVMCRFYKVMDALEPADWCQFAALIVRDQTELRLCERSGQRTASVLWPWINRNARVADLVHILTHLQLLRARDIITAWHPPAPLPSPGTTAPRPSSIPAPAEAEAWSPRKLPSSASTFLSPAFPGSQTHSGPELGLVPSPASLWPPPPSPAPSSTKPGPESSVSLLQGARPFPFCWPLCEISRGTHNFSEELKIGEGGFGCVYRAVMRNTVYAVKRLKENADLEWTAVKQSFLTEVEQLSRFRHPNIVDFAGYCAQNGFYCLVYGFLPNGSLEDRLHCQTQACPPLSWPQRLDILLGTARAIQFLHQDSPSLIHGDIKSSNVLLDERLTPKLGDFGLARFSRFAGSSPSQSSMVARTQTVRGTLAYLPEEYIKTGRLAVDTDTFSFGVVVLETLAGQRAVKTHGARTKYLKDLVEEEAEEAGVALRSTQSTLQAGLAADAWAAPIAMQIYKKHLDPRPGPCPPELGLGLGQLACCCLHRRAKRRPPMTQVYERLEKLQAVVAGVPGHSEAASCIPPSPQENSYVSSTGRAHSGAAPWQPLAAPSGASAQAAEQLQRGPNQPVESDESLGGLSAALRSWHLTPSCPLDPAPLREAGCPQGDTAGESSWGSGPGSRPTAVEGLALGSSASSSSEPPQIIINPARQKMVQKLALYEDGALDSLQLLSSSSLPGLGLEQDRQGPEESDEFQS

COc1cc(F)ccc1-c1ccnc(NC(=O)[C@@H]2CC[C@H](NC(C)=O)C2)c1
IC50 [1]: 1.88 µM | IC50 [2]: 0.913 µM | IC50 [3]: 1.45 µM | IC50 [4]: 1.34 µM | IC50 [5]: > 5 µM | IC50 [6]: > 5 µM | IC50 [7]: 0.01 µM | IC50 [8]: 0.099 µM | IC50 [9]: 0.857 µM | IC50 [10]: > 5 µM
